Measured values published in US5880116A, “Use of celastrol to treat alzheimer's disease” (Neurocal International, priority 1996, dated 1999).

Experiments:
[1] = tested on: agitation and aggression; settings: in vivo; cited from earlier work
[2] = tested on: patients clinically diagnosed with early AD; settings: six months; cited from earlier work
[3] = tested on: ICR inbred mice; settings: 1-3 mg/kg i.p. daily; cited from earlier work
[4] = tested on: AA rats with experimental adjuvant arthritis; settings: rat, in vivo; cited from earlier work
[5] = in words; cited from earlier work
[6] = tested on: splenic lymphocytes; settings: dose dependent; cited from earlier work
[7] = tested on: rats (psychomotor coordination); assay: Psychomotor coordination (PMC) in rota-rod apparatus; assay type: in vivo, rat (female Sprague-Dawley); settings: for PMC: Psychomotor coordination: N = 6, mean ± SD
Experimental: (§1) Celastrol or vehicle was administered to rats as described below. Female Sprague-Dawley rats (obtained from Santiago University, Santiago de Compostela, Spain) were about 3 months old and weighed 200-250 g. The animals were maintained under standard conditions at the Euroespes Institute laboratory facilities.
(§2) The celastrol formulation was purchased in China in the form of pills under the name of "Leigongtengpian." The dose is expressed as the content of celastrol. The celastrol was dissolved in DMSO (35 μg/mL) and then adjusted to the appropriate concentration with 0.9% saline. Doses of 1.4, 7 and 35 μg/kg were administered intraperitoneally (i.p.) in a total injection volume of 2 ml/kg.
At one hour after treatment, psychomotor coordination (PMC) was evaluated in a rota-rod apparatus (Letica Scientifiic Instruments, Barcelona, Spain) which consists of a roller turning at a constant pre-selected velocity (4-40 rpm) or at an increasing velocity with constant acceleration (for example, from 4 to 40 rpm in 300 seconds), and four digital counters that are stopped when the rat falls from the rod and lowers a pedal. In this test, the animals ran on a rod with constant acceleration until they fell off because they are unable to run at the necessary velocity to maintain equilibrium. Generally, there are two main causes of low performance in this test 1) myorelaxation and 2) balance disorders, as in some vestibular and brain lesions. Improved performance is seen with drugs improving muscular strength, motor coordination and/or balance. Mean running time of five consecutive trials was taken as an index of PMC.
(§3) Data were statistically analyzed by the ANOVA and the Duncan test for multiple comparisons. Results were expressed as mean ± standard deviation (SD) in tables and as mean ± standard error of […] (SEM) in figures.

[8] = tested on: splenic cells; settings: cited from earlier work
[9] = tested on: rats (passive avoidance learning); assay: Passive avoidance behavior (PAB) learning, fixed-ratio maze paradigm; assay type: in vivo, rat (female Sprague-Dawley); settings: for Av: number of avoidances during 10 trials / La: mean latency time per trial: N = 6, mean ± SD
Experimental: as §1, §2
Two hours after treatment, rats were tested for passive avoidance behavior in a PAB fixed-ratio maze paradigm, in which they learned to stay on a neutral platform (18×18 cm) in order to avoid a continuous electric footshock in the surrounding area during 10 trials (30 seconds each). The inter-trial interval was 30 seconds. The number of complete avoidances during 10 trials (Av; successful trials in which rat remains in the neutral area the entire 30-second period) and the latency per trial (La; time spent in the neutral platform before leaving it in a trial) were taken as learning indices. The number of avoidances represents a yes/no or discontinuous variable reflecting learning ability of the rats. In general, good learners perform more avoidances because they need fewer trials to learn to avoid footshock. Latency is a continuous variable measuring the time the rat is on the neutral platform without receiving footshock. Rats having the best memory or learning capacity spend more time on the neutral area. Therefore, latency is also an index of learning ability. Finally, when a drug increases the number of avoidances and mean trial latency in this paradigm, it means that this drug improves learning and memory function.
as §3

[10] = tested on: rats (psychomotor activity); assay: Open-field psychomotor activity (PMA, VA, FF) in OUCEM-86 electronic maze; assay type: in vivo, rat (female Sprague-Dawley); settings: for PMA: Psychomotor activity: N = 6, mean ± SD, 30 min recording
Experimental: as §1, §2
Immediately after injection, the animals were placed in the Osaka University Computerized Electronic Maze system (OUCEM-86, obtained from Bio Medica, Ltd., Osaka, Japan). The system, as previously described by Cacabelos et al (Prog. Med. 7:763-773, 1987), is integrated with the following components: A Programmable Electronic Platform (PEP) which measures 62 cm×62 cm and is equipped with 48 photo beam sensors (OPX-T30) to detect the three-dimensional position (four-footed, two-footed or rearing, and jumping) of the test animal; a Programming Panel (PP) (Model BECM-0064) for paradigm simulation; a Shock Generator Scrambler (SGS)(Model BSG-1065) to apply continuous or discontinuous electric currents to the PEP; a Control Station interface device to automatically computerize behavioral parameters; and a Computerized System (NEC PC-9801F) for data processing and experimental setting.
Tests were conducted in an open-field paradigm (where the rat can move freely) as previously described (Cacabelos et al. 1987) where psychomotor activity (PMA) was automatically recorded. Total PMA is the sum of horizontal and vertical movements. Horizontal movements are four-footed movements (FF). Vertical activity (VA) includes jumping and rearing (or two-footed) movements. The temporal profile of PMA during the 30 minutes of recording was also studied. PMA, FF and VA were expressed as total inputs/outputs (I/O). In general, increases in PMA, mainly in VA, are observed in situations of stress. A global increase in PMA is also found under treatment with stimulants and in rats with brain cholinergic deficits. Conversely, decreases in PMA are typical of sedative drugs, for instance.
as §3

[11] = tested on: peritoneal macrophages; settings: dose dependent; cited from earlier work
[12] = tested on: AD patients; settings: file history of US 5,192,753; cited from earlier work
[13] = tested on: patients with AD; settings: a subgroup of patients with AD; cited from earlier work
[14] = 1.4 μg/kg i.p., 2 hours after treatment
[15] = 7.0 μg/kg i.p., * p < 0.05 vs control (0.0)

Q: Which agitation and aggression [1] does the source give for `CC(C)NCC(O)COc1cccc2[nH]ccc12` (stereo not shown) [pindolol] here?
A: The agitation and aggression was “reported to help reduce agitation and aggression”.

Q: Which ADAS [2] does the source give for `COc1ccc2c(c1)c(CC(=O)O)c(C)n2C(=O)c1ccc(Cl)cc1` [indomethacin] here?
A: The ADAS was “only slight decrements”.

Q: What about the BNT [2] of the same molecule?
A: Its BNT is “slight improvement”.

Q: And the MMSE [2]?
A: The MMSE was “almost no change”.

Q: And the TT [2]?
A: Its TT is “only slight decrements”.

Q: For `CC(C)NCC(O)COc1cccc2ccccc12` (stereo not shown) [Propranolol], which agitation and aggression [1] is on record?
A: Its agitation and aggression is “reported to help reduce agitation and aggression”.

Q: With `CC1=C(O)C(=O)C=C2C1=CC=C1[C@@]2(C)CC[C@@]2(C)[C@@H]3C[C@](C)(C(=O)O)CC[C@]3(C)CC[C@]12C` [Celastrol] as the molecule, how does the antibody formation [3] read?
A: The antibody formation was “reduced antibody formation very significantly”.

Q: What about the “circulating immune complex levels” value [3] of the same molecule?
A: Its value is “decreased circulating immune complex levels”.

Q: What about the serum complement [3] of the same molecule?
A: The serum complement was “increased serum complement”.

Q: And the joint edema [4]?
A: Its joint edema is “reduced joint edema”.

Q: What about the “lipid-peroxidation and free radical formation” value [4] of the same molecule?
A: The value was “inhibition of lipid-peroxidation and free radical formation”.

Q: What about the insecticidal activity [5] of the same molecule?
A: Its insecticidal activity is “insecticidal inert”.

Q: And the “Con A-induced IL-2 production” value [6]?
A: The value was “decreased”.

Q: What about the “PMC: Psychomotor coordination” value ([7]; 1.4 μg/kg i.p., 1 hour after treatment) of the same molecule?
A: Its value is 99.4 ± 19.2 sec/trial.

Q: And the “PMC, significance of difference” value ([7]; 7 μg group)?
A: Its value is “reached significance”.

Q: What about the “PMC: Psychomotor coordination” value ([7]; 7.0 μg/kg i.p., ** p < 0.01 vs control (0.0)) of the same molecule?
A: Its value is 126.3 ± 37.6 sec/trial.

Q: What about the “PMC: Psychomotor coordination” value ([7]; 35.0 μg/kg i.p., 1 hour after treatment) of the same molecule?
A: Its value is 106.5 ± 21.3 sec/trial.

Q: And the “PMC (FIG. 14), in words” value ([7]; 1.4, 7 and 35 μg treatment groups vs no-treatment group)?
A: Its value is “all scored better than the no-treatment group”.

Q: And the “dose of maximum effect on PMC” value ([7]; i.p.)?
A: Its value is 7 µg/kg.

Q: What about the “concentration of optimal effects on mitogen-induced splenic cell proliferation” value ([8]; PHA, Con A, LPS and PWM) of the same molecule?
A: Its value is 0.1 µg/mL.

Q: What about the “proliferation of splenic cells induced by mitogens PHA, Con A, LPS and PWM” value ([8]; in words) of the same molecule?
A: The value was “inhibited proliferation”.

Q: What about the “Av: number of avoidances during 10 trials” value (“Av: number” for short) [9, 14] of the same molecule?
A: The value was 4.3 ± 2.1 n°.

Q: And the “La: mean latency time per trial” value [9, 14]?
A: The value was 18.3 ± 5.2 s.

Q: What about the “Av, significance of difference” value ([9]; 7 μg group) of the same molecule?
A: Its value is “reached significance”.

Q: And the “La, significance of difference” value ([9]; 7 μg group)?
A: Its value is “reached significance”.

Q: What about the “Av: number” value [9, 15] of the same molecule?
A: Its value is 5.1 ± 1.8 n°.

Q: And the “La: mean latency time per trial” value [9, 15]?
A: Its value is 20.3 ± 2.8 s.

Q: And the “latency time on the neutral platform (FIG. 16), in words” value ([9]; 7.0 μg/kg treatment group)?
A: Its value is “learned significantly more quickly to stay on the platform and avoid the shock”.

Q: What about the “La, significance of difference” value ([9]; 35 μg group) of the same molecule?
A: The value was “reached significance”.

Q: What about the “La: mean latency time per trial” value ([9]; 35.0 μg/kg i.p., 2 hours after treatment) of the same molecule?
A: The value was 18.8 ± 4.6 s.

Q: What about the “Av: number” value ([9]; 35.0 μg/kg i.p., * p < 0.05 vs control (0.0)) of the same molecule?
A: Its value is 5.0 ± 1.4 n°.

Q: What about the “numbers of complete avoidances during 10 trials (FIG. 15), in words” value ([9]; 7 and 35 μg treatment groups vs no-treatment group) of the same molecule?
A: The value was “scored significantly higher”.

Q: And the “dose of maximum effect on PAB scores” value ([9]; i.p.)?
A: Its value is 7 µg/kg.

Q: And the “PMA vs untreated group, in words” value ([10]; 1.4 μg group, significance not reached)?
A: Its value is “higher than for the untreated group”.

Q: What about the “PMA: Psychomotor activity” value ([10]; 1.4 μg/kg i.p.) of the same molecule?
A: Its value is 3011 ± 1185 I/O.

Q: And the “PMA: Psychomotor activity” value ([10]; 7.0 μg/kg i.p.)?
A: The value was 2200 ± 1203 I/O.

Q: And the “PMA: Psychomotor activity” value ([10]; 35.0 μg/kg i.p.)?
A: The value was 1637 ± 796 I/O.

Q: What about the “four-footed (FF) activity (FIG. 12), in words” value ([10]; 1.4 and 7 μg groups) of the same molecule?
A: The value was “improved somewhat”.

Q: And the “PMA (total activity, FIG. 10), in words” value ([10]; 1.4 and 7 μg treatment groups)?
A: The value was “fared somewhat better”.

Q: And the “vertical activity (VA, FIG. 11), in words” value ([10]; 1.4 and 7 μg treatment groups vs no-treatment group)?
A: Its value is “fared somewhat better than the no-treatment group”.

Q: What about the “PMA over the thirty minute test interval (FIG. 13), in words” value ([10]; all treatment groups) of the same molecule?
A: Its value is “a general trend of decreasing activity during the test period”.

Q: What about the “dose of maximum effect on PMA” value ([10]; i.p.) of the same molecule?
A: The value was 1.4 µg/kg.

Q: What about the “LPS-induced IL-1 production” value [11] of the same molecule?
A: The value was “decreased”.

Q: Which “effect in AD patients” value [12] does the source give for `C[C@]12C=CC(=O)C=C1CC[C@@H]1[C@@H]2C(=O)C[C@@]2(C)[C@H]1CC[C@]2(O)C(=O)CO` [prednisone] here?
A: Its value is “no effect”.

Q: Which “cognitive and functional measures” value [13] does the source give for `Nc1c2c(nc3ccccc13)CCCC2` [tacrine] here?
A: The value was “improvement”.

Q: Which agitation and aggression [1] does the source give for `O=C1CC2(CCCC2)CC(=O)N1CCCCN1CCN(c2ncccn2)CC1` [buspirone] here?
A: Its agitation and aggression is “reported to help reduce agitation and aggression”.
